ChEMBL document CHEMBL5465560, “Selectivity Literature for EUbOPEN Chemogenomic Library” (2024)
Each block holds one compound with its values, some of them ahead of it.

Legend:
[1] = target: T1, Serine/threonine-protein kinase 36 (Homo sapiens) (UniProt Q9NRP7); experiment: Selectivity interaction (Ambit KINOMEscan and KiNATiv profiling in Jurkat cells) EUB0000090b STK36; type: cell-based; conditions: at 1 µM
T1 sequence (whole entry): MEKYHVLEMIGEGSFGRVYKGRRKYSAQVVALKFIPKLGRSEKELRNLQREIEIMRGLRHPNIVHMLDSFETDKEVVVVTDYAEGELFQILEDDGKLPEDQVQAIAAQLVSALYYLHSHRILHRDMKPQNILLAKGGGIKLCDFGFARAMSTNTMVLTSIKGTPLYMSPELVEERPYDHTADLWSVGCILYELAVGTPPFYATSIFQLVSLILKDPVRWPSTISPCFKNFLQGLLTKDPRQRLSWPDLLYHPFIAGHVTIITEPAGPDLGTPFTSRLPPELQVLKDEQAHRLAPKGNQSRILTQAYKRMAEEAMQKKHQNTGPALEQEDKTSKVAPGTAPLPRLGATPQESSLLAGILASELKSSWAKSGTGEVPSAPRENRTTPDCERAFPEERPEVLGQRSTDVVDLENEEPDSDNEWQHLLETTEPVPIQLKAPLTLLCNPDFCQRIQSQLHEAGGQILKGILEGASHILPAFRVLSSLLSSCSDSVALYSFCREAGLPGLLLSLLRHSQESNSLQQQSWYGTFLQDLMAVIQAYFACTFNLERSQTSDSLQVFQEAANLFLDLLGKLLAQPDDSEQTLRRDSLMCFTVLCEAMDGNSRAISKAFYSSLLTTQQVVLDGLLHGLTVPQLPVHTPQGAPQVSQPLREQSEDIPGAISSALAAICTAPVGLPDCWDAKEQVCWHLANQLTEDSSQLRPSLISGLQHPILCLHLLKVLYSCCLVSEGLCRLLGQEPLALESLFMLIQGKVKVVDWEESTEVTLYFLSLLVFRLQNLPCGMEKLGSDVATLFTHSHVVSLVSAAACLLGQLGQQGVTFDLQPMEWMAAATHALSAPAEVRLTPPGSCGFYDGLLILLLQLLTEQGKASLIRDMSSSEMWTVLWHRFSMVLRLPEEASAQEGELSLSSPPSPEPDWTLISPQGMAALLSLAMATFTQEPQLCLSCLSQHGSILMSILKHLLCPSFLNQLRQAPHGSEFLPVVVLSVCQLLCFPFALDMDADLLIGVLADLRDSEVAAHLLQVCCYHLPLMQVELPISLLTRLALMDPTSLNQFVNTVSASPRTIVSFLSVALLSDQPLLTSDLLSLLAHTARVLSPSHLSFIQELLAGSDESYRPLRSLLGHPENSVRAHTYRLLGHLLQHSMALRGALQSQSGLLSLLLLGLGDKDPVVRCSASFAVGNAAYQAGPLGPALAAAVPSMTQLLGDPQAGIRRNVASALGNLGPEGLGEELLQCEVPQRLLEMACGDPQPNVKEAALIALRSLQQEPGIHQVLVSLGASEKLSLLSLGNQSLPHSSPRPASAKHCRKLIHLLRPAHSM

[2] = target: Protein-tyrosine kinase 2-beta (Homo sapiens) (UniProt Q14289); experiment: Selectivity interaction (Upstate Kinase Profiler service (Millipore)) EUB0000056c PTK2B; conditions: at 1 µM
Sequence of Protein-tyrosine kinase 2-beta (Homo sapiens) (Q14289 whole entry, looked up): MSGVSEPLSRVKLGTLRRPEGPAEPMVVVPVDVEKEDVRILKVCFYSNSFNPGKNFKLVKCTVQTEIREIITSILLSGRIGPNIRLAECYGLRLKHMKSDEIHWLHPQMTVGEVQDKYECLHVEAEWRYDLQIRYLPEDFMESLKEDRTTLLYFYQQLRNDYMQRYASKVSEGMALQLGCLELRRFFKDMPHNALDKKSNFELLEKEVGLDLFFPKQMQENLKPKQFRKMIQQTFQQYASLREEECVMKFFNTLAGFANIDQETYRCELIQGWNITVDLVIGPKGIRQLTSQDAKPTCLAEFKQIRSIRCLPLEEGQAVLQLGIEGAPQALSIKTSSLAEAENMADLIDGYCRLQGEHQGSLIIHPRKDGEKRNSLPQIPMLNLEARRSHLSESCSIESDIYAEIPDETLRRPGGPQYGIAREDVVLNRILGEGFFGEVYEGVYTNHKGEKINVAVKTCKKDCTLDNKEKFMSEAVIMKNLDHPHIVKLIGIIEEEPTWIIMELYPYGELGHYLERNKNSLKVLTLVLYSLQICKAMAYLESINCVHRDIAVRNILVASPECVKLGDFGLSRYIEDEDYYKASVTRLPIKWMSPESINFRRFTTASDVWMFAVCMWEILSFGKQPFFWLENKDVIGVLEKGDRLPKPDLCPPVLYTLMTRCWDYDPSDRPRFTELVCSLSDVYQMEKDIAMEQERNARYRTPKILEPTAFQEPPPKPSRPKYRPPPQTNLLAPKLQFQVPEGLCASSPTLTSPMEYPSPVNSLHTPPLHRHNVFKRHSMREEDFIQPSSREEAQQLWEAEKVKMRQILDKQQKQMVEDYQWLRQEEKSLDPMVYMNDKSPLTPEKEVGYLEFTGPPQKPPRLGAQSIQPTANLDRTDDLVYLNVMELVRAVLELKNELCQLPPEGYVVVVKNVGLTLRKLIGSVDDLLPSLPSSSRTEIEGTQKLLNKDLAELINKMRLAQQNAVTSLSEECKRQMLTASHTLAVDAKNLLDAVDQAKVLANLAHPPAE

[3] = target: DNA-dependent protein kinase catalytic subunit (Homo sapiens) (UniProt P78527); experiment: Selectivity interaction (ActivX KiNativ screen (kinase selectivity in THP-1 cell lysates)) EUB0000639a PRKDC; type: subcellular; conditions: lysate, at 0.04 µM
Sequence of DNA-dependent protein kinase catalytic subunit (Homo sapiens) (P78527 whole entry): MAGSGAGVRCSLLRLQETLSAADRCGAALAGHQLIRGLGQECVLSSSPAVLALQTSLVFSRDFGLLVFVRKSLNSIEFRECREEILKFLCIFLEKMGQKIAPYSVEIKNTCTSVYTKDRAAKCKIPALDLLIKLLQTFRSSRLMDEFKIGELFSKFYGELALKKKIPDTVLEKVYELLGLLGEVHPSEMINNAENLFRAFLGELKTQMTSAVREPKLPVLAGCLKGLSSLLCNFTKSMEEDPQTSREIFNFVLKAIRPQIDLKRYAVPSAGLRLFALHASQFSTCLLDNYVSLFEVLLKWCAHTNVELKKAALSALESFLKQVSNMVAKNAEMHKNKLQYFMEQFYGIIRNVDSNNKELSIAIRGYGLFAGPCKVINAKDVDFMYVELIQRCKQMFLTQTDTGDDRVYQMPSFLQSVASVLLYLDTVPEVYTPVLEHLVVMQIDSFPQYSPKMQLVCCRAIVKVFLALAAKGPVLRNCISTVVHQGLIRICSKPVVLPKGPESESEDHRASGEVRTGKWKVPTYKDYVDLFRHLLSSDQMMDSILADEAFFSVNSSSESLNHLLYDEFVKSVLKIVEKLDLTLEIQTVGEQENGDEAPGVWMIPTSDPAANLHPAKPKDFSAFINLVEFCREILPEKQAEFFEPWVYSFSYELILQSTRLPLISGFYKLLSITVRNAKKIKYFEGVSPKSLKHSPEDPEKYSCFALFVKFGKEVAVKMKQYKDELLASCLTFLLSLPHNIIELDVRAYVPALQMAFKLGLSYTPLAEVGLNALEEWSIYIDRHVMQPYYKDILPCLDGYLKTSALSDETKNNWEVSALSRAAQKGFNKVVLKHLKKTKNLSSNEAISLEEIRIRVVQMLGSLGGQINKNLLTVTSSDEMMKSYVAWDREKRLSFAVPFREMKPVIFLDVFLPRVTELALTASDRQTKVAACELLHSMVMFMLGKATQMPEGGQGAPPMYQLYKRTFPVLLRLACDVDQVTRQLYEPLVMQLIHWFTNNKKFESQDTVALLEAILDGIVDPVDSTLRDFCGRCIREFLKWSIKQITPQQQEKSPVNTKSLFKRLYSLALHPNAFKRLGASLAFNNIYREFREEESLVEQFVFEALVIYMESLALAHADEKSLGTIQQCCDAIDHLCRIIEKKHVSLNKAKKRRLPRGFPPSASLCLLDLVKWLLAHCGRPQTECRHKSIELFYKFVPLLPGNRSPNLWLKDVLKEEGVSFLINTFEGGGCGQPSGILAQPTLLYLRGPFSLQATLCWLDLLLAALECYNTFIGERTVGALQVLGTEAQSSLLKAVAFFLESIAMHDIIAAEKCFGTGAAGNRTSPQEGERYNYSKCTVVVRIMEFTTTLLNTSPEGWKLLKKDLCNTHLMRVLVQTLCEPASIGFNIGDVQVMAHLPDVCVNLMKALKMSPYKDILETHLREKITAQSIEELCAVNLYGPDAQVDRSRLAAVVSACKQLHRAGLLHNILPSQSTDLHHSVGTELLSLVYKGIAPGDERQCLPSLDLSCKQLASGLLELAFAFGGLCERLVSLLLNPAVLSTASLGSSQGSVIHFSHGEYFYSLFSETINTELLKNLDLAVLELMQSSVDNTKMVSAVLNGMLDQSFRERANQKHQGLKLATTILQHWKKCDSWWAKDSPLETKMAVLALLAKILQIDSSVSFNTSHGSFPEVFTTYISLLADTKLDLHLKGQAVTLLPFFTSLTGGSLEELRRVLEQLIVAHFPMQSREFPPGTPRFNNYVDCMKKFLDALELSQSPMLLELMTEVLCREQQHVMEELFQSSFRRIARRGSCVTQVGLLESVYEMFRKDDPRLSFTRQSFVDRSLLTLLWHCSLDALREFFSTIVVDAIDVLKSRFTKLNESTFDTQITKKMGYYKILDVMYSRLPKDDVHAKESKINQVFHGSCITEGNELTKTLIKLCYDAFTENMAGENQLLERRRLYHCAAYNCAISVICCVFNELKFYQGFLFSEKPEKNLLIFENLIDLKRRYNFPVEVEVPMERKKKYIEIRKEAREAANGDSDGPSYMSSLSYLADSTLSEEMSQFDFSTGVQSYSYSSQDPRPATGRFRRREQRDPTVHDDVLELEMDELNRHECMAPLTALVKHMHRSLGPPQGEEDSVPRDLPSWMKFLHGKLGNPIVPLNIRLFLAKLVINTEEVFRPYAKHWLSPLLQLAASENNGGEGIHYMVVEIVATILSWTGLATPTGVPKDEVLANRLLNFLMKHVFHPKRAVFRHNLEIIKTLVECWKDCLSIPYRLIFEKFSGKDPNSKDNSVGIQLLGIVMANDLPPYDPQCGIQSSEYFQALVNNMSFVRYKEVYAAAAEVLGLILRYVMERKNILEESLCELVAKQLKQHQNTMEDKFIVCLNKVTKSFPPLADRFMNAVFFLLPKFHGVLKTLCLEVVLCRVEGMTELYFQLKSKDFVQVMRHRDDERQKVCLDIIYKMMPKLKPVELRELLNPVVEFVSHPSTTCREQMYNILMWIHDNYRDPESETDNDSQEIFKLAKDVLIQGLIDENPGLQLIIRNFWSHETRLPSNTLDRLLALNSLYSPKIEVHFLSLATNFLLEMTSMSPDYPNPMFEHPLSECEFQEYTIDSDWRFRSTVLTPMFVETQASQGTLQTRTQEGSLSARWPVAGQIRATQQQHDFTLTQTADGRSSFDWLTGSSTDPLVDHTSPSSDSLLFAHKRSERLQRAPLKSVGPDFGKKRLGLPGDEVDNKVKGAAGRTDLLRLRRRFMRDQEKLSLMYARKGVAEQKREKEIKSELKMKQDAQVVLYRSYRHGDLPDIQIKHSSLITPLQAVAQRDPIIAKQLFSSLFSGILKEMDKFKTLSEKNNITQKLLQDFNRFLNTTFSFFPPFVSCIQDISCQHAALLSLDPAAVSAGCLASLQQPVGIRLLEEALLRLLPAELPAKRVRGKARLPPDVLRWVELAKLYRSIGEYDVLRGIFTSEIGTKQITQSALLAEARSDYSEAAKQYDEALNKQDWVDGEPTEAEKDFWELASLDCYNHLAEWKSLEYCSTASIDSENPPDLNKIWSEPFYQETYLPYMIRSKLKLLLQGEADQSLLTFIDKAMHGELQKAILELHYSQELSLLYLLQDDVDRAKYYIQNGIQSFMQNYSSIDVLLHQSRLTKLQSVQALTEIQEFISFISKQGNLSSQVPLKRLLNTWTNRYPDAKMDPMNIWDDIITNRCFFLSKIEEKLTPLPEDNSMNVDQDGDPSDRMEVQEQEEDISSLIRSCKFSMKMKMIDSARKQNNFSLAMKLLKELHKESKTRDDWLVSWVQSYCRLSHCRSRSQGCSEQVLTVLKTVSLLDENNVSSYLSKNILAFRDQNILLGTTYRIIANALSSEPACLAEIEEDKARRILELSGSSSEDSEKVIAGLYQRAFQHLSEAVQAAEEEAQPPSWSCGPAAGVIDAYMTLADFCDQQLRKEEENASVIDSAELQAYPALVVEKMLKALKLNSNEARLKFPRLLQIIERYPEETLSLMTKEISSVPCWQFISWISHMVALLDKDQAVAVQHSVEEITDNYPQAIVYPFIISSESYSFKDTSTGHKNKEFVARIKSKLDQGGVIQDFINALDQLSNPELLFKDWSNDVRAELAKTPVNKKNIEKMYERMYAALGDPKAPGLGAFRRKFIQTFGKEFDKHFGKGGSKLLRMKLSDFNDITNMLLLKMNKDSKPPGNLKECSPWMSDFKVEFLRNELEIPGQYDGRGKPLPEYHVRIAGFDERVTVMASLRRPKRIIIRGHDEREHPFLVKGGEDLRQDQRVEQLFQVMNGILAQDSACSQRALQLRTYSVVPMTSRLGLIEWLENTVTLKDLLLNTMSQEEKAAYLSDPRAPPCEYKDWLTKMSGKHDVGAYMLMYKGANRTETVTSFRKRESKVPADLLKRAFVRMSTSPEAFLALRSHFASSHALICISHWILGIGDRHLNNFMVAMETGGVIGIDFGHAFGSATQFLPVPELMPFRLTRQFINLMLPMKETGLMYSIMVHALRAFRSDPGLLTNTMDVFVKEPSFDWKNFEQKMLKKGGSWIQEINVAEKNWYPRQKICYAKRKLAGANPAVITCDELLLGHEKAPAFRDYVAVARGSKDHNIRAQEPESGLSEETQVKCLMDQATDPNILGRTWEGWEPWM

[4] = target: T2, Serine/threonine-protein kinase PLK4 (Homo sapiens) (UniProt O00444); experiment: Selectivity interaction (KinomeScan (DiscoverX)) EUB0000229b PLK4; conditions: at 10 µM
T2 sequence (whole entry): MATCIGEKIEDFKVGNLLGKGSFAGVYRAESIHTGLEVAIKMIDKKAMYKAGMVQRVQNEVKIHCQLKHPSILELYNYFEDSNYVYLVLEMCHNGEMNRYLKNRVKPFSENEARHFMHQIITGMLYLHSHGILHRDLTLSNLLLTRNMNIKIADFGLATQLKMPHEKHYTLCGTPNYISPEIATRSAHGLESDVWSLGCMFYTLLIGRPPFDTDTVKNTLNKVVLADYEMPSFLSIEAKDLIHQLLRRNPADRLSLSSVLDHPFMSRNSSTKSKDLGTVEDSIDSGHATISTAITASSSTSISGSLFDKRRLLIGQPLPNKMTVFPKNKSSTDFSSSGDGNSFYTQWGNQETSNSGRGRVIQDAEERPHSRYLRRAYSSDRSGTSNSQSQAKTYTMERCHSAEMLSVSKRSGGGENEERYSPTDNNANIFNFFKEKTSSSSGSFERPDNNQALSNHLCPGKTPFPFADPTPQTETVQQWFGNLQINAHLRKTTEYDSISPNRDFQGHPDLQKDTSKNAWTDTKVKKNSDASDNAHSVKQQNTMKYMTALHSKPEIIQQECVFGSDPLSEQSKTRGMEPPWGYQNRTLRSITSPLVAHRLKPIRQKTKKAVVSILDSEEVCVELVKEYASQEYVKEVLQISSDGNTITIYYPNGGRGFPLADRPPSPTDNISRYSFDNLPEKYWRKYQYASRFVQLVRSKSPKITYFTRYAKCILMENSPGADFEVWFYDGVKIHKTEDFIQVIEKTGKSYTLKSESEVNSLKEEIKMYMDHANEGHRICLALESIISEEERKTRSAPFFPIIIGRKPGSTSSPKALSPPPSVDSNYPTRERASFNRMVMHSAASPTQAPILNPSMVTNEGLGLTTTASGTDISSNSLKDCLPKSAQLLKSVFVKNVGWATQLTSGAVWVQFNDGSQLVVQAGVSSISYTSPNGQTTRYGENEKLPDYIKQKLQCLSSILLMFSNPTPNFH

Structure (SMILES): CN(C)C/C=C/C(=O)Nc1ccc(C(=O)N2CCCC(Nc3ncc(Cl)c(-c4c[nH]c5ccccc45)n3)C2)cc1 (centres undefined)
% of control [1]: 85%

% of inhibition [2]: 12%
Structure (SMILES): Cc1ccc(-c2ccc3c(ccc4sc5c(c43)NC[C@@H](C)NC5=O)n2)cn1

% of inhibition [3]: -0.6%
Structure (SMILES): CC[C@@H]1[C@H](F)C(=O)N[C@@H]1COc1nccc2cc(C(N)=O)c(OC)cc12 [ZIMLOVISERTIB]

Structure (SMILES): COc1cc(N(C)c2ccnc3ccc(C(F)(F)F)cc23)cc(OC)c1OC
% binding [4]: 99%
